In patent US20160354359A1, “C[…]-[…] A NET INHIBITOR FOR ADM[…] A BRAIN-DEAD, HEART-BEATING POTENTIAL ORGAN DONOR” (VIVOLINE MEDICAL AB, priority 2008, published 2016):

Tests used:
[1] = biological target: NET (norepinephrine transporter) (Homo sapiens, UniProt P23975); details: cited from earlier work
brain-dead pigs = assay: More than 20 experiments with pigs using cocaine in combination with adrenaline and noradrenaline, blood pressure over 24 hours; format: in vivo, pig; details: from initiation of the intervention and over 24 hours
From the text: The inventor has performed more than 20 experiments with pigs and using cocaine in combination with adrenaline and noradrenaline.

[2] = system: brain-dead, heart-beating, respirated donor; details: blood circulation
Experimental: In order to test this hypothesis, other NET inhibitors were tested, such as desipramine and imipramine, which both are known to be NET inhibitors.

brain-dead body of a pig [3] = details: adrenaline and noradrenaline at constant 0.4 ml/hour
Experimental: In this experiment, adrenaline and noradrenaline was added at a constant rate of 0.4 ml/hour.

[4] = in vivo; cited from earlier work
blood pressure = details: in vivo; cited from earlier work
brain-dead body of a pig [5] = assay: Experiment 2: infusion of desipramine solution with adrenaline and noradrenaline, blood pressure
Experimental: In addition 1 mg of adrenaline and 1 mg of noradrenaline was included in the solution.

alpha-1 = assay: Potency as replacement of noradrenaline (alpha-1-agonist)
From the text: In some embodiments, the adrenaline and/or noradrenaline may be partly or entirely replaced by an equivalent substance. For example, phenylephrine is an alpha-1-agonist and may replace noradrenaline.

Chain of NET (norepinephrine transporter) (P23975 whole entry, species assumed): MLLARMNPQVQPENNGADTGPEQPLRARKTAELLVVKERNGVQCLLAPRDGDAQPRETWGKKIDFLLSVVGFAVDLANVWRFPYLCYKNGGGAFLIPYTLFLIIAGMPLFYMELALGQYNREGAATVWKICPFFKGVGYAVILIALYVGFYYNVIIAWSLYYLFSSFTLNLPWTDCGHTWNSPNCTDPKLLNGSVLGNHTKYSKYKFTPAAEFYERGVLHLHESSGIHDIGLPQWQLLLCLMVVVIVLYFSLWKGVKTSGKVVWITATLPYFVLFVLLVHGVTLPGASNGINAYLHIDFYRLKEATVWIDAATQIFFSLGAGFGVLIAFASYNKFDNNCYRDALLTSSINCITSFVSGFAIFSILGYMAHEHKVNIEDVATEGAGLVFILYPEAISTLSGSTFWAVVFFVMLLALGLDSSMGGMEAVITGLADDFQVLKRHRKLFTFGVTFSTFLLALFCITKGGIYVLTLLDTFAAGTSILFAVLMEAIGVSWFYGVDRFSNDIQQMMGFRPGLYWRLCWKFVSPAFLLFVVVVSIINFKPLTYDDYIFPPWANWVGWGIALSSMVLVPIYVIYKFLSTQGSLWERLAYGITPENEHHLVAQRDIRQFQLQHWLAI

SMILES: CNCCCC1c2ccccc2C=Cc2ccccc21 [Protriptylin, Protriptyline]
- potency among typical NET inhibitors [1]: highest

SMILES: COC(=O)[C@H]1[C@@H](OC(=O)c2ccccc2)C[C@@H]2CC[C@H]1N2C [cocaine, benzoylmethyl ecgonine]
- blood pressure maintained at a constant level (brain-dead pigs): 70 mmHg
- effect of addition together with noradrenaline on noradrenaline needed for vasoconstriction [2]: much lower levels of noradrenaline
- effect of bolus on blood pressure (brain-dead body of a pig [3]; bolus of 2 mg at 21 hours): increase of the blood pressure
- time after which the effect of the bolus ceased (brain-dead body of a pig [3]; bolus of 2 mg at 21 hours): about 3 hours
- half-life time [4]: about 1 hours

SMILES: CNCCCN1c2ccccc2CCc2ccc(Cl)cc21 [Norclomipramine]
- potency among typical NET inhibitors [1]: highest

SMILES: CN(C)CCCN1c2ccccc2CCc2ccccc21 [imipramine, Imipramine]
- blood pressure reached after bolus (brain-dead body of a pig [3]; bolus at 24.5 hours, from about 80 mmHg): about 100 mmHg

SMILES: CCN(CC)CC(=O)Nc1c(C)cccc1C [Lidocaine]
- effect of infusion on blood pressure (blood pressure): vasodilatation and a lowering of the blood pressure

SMILES: NC(=O)CC[C@@H]1NC(=O)[C@H](Cc2ccccc2)NC(=O)[C@H](Cc2ccc(O)cc2)NC(=O)[C@@H](N)CSSC[C@@H](C(=O)N2CCC[C@H]2C(=O)N[C@@H](CCCN=C(N)N)C(=O)NCC(N)=O)NC(=O)[C@H](CC(N)=O)NC1=O [ADH, vasopressin]
- half-life-time [4]: about 15 minutes

SMILES: CNCCCN1c2ccccc2CCc2ccccc21 [desipramine, Desipramine]
- mean pressure reached on infusion (brain-dead body of a pig [5]; 3 mg desipramine, 1 mg adrenaline, 1 mg noradrenaline in 50 ml, 1.7 then 3.2 ml/hour, from a mean pressure of about 40 mmHg): 80 mmHg
- blood pressure after infusion rate was decreased (brain-dead body of a pig [5]; infusion decreased to 2.5 then 1.7 ml/hour, never decreased further): about 60 mmHg
- half-life time [4]: 30 h

SMILES: CNC[C@H](O)c1cccc(O)c1 [phenylephrine]
- times less potent as noradrenaline (alpha-1): about 5 times
